Earlier results, collected in publication PMC7327225 (Hepatology Communications, 2020).

Test system: β1‐containing AMPK trimers
Details: explains failure to activate AMPK in muscle

In the case of `O=C(O)c1c[nH]c2cc(Cl)c(-c3ccc(C4(O)CCC4)cc3)cc12` [PF‐06409577], the AMPK isoform selectivity is listed as “selectivity toward β1‐containing AMPK trimers”.
